From patent US10047105B2, “Gyrase inhibitors” (Merck Sharp & Dohme Corp., priority 2009, dated 2018)
≈ marks a conversion by molar mass, not a printed value.

Columns and labels:
S. pneumoniae ATCC 51916 = test: MIC, S. pneumoniae; assay type: cell-based; conditions: S. pneumoniae
S. aureus ATCC 13709 = test: MIC, antibacterial potency, S. aureus; assay type: cell-based; conditions: S. aureus

MIC Spn52 (S. pneumoniae ATCC 51916) | MIC, SA (S. aureus ATCC 13709) | Structure (SMILES)
8 µg/mL (≈ 18.3 µM) | 1 µg/mL (≈ 2.29 µM) | CCCn1c(=O)cc(Sc2nc(N3CC(O)C3)c3c(Cl)c(CC)[nH]c3n2)[nH]c1=O [700,418]
2 µg/mL (≈ 4.23 µM) | 1 µg/mL (≈ 2.12 µM) | CCc1[nH]c2nc(Sc3cnc4nccnc4c3)nc(N3CCOCC3)c2c1Br [700,423]
1 µg/mL (≈ 2.34 µM) | ≤ 0.5 µg/mL | CCc1[nH]c2nc(Sc3cnc4nccnc4c3)nc(N3CCOCC3)c2c1Cl [700,424]
2 µg/mL (≈ 4.39 µM) | ≤ 0.5 µg/mL | CCc1[nH]c2nc(Sc3cnc4nccnc4c3)nc(N3CCCC(CO)C3)c2c1Cl (stereo not shown) [700,425]
1 µg/mL (≈ 2.26 µM) | 1 µg/mL (≈ 2.26 µM) | CCc1[nH]c2nc(Sc3cnc4nccnc4c3)nc(N3CCC[C@H]3CO)c2c1Cl [700,426]
1 µg/mL (≈ 2.34 µM) | ≤ 0.5 µg/mL | CCc1[nH]c2nc(Sc3cnc4nccnc4c3)nc(N3CC[C@H](O)C3)c2c1Cl [700,427]
1 µg/mL (≈ 2.34 µM) | ≤ 0.5 µg/mL | CCc1[nH]c2nc(Sc3cnc4nccnc4c3)nc(N3CC[C@@H](O)C3)c2c1Cl [700,428]
2 µg/mL (≈ 4.02 µM) | ≤ 0.5 µg/mL | CCc1[nH]c2nc(Sc3cnc4nccnc4c3)nc(N3CCC(N4CCOCC4)C3)c2c1Cl (stereo not shown) [700,429]
32 µg/mL (≈ 70.3 µM) | 32 µg/mL (≈ 70.3 µM) | CCc1[nH]c2nc(Sc3cnc4nccnc4c3)nc(N3CC[C@@H](N(C)C)C3)c2c1Cl [700,430]
> 64 µg/mL | > 64 µg/mL | CCc1[nH]c2nc(Sc3cnc4nccnc4c3)nc(N(C)CC(O)C(O)C(O)C(O)CO)c2c1Cl (stereo not shown) [700,431]
4 µg/mL (≈ 9.18 µM) | 1 µg/mL (≈ 2.29 µM) | CCc1[nH]c2nc(Sc3cnc4nccnc4c3)nc(Oc3cccnc3)c2c1Cl [700,432]
1 µg/mL (≈ 2.21 µM) | ≤ 0.5 µg/mL | CCc1[nH]c2nc(Sc3cc(=O)n(C)c(=O)[nH]3)nc(N3CC(O)C3)c2c1Br [700,433]
1 µg/mL (≈ 2.04 µM) | ≤ 0.5 µg/mL | CCc1[nH]c2nc(Sc3cnc4nccnc4c3)nc(N3CC(NS(C)(=O)=O)C3)c2c1Cl [700,435]
1 µg/mL (≈ 1.79 µM) | ≤ 0.5 µg/mL | CCc1[nH]c2nc(Sc3cnc4nccnc4c3)nc(N3CC(NS(=O)(=O)CC(F)(F)F)C3)c2c1Cl [700,436]
2 µg/mL (≈ 3.58 µM) | ≤ 0.5 µg/mL | CCc1[nH]c2nc(Sc3cnc4nccnc4c3)nc(N3CC(NS(=O)(=O)c4cnoc4C)C3)c2c1Cl [700,437]
1 µg/mL (≈ 2.06 µM) | ≤ 0.5 µg/mL | CCc1[nH]c2nc(Sc3cnc4nccnc4c3)nc(N3CC(NC(=O)COC)C3)c2c1Cl [700,438]
1 µg/mL (≈ 1.93 µM) | ≤ 0.5 µg/mL | CCc1[nH]c2nc(Sc3cnc4nccnc4c3)nc(N3CC(NC(=O)c4cnccn4)C3)c2c1Cl [700,439]

MIC Spn52 (S. pneumoniae ATCC 51916) | MIC, SA (S. aureus ATCC 13709) | Structure (SMILES)
≤ 0.5 µg/mL | ≤ 0.5 µg/mL | CCc1[nH]c2nc(Sc3cnc4nccnc4c3)nc(N3CC(NC(=O)C4CC4)C3)c2c1Cl [700,440]
2 µg/mL (≈ 4.4 µM) | ≤ 0.5 µg/mL | CCc1[nH]c2nc(Sc3cnc4nccnc4c3)nc(N3CC(NC(C)=O)C3)c2c1Cl [700,441]
2 µg/mL (≈ 4.04 µM) | ≤ 0.5 µg/mL | CCc1[nH]c2nc(Sc3cc(=O)n(CC(C)=O)c(=O)[nH]3)nc(N3CC(O)C3)c2c1Br [700,442]
1 µg/mL (≈ 1.97 µM) | 1 µg/mL (≈ 1.97 µM) | CCc1[nH]c2nc(Sc3cnc4nccnc4c3)nc(N3CC(NC(=O)c4cnc[nH]4)C3)c2c1Cl [700,449]
4 µg/mL (≈ 8.04 µM) | 1 µg/mL (≈ 2.01 µM) | CCc1[nH]c2nc(Sc3cc(=O)n(CC(C)O)c(=O)[nH]3)nc(N3CC(O)C3)c2c1Br (stereo not shown) [700,451]
≤ 0.5 µg/mL | ≤ 0.5 µg/mL | CCc1[nH]c2nc(Sc3cnc4nccnc4c3)nc(N3CC(NC(=O)c4csc(N)n4)C3)c2c1Cl [700,453]
1 µg/mL (≈ 1.88 µM) | ≤ 0.5 µg/mL | CCc1[nH]c2nc(Sc3cnc4nccnc4c3)nc(N3CC(NC(=O)c4cc(N)ccn4)C3)c2c1Cl [700,454]
2 µg/mL (≈ 4.29 µM) | 2 µg/mL (≈ 4.29 µM) | CCc1[nH]c2nc(Sc3cnc4nccnc4c3)nc(NCCCn3ccnc3)c2c1Cl [700,455]
4 µg/mL (≈ 8.06 µM) | ≤ 0.5 µg/mL | CCc1[nH]c2nc(Sc3cnc4nccnc4c3)nc(N3CCc4nc(N)sc4C3)c2c1Cl [700,456]
2 µg/mL (≈ 4.81 µM) | 1 µg/mL (≈ 2.4 µM) | CCc1[nH]c2nc(Sc3cnc4nccnc4c3)nc(NC[C@H](C)O)c2c1Cl [700,457]
> 64 µg/mL | 1 µg/mL (≈ 2.26 µM) | CCc1[nH]c2nc(Cc3cccnc3)nc(N3CC(NC(=O)OC(C)(C)C)C3)c2c1Cl [700,461]
32 µg/mL (≈ 72.6 µM) | > 64 µg/mL | CCc1[nH]c2nc(Sc3cnc4nccnc4c3)nc(N3CCC[C@H]3CN)c2c1Cl [700,462]
4 µg/mL (≈ 9.37 µM) | 2 µg/mL (≈ 4.68 µM) | CCc1[nH]c2nc(Sc3cnc4nccnc4c3)nc(N3CC(CN)C3)c2c1Cl [700,463]
16 µg/mL (≈ 33.9 µM) | 4 µg/mL (≈ 8.49 µM) | CCc1[nH]c2nc(Sc3cnc4nccnc4c3)nc(N3CC(CN)C3)c2c1Br [700,467]
1 µg/mL (≈ 1.82 µM) | ≤ 0.5 µg/mL | CCc1[nH]c2nc(Sc3cnc4nccnc4c3)nc(N3CC(CNS(C)(=O)=O)C3)c2c1Br [700,468]
2 µg/mL (≈ 4.37 µM) | 1 µg/mL (≈ 2.19 µM) | CCc1[nH]c2nc(Sc3cnc4nccnc4c3)nc(N3CC(N)C3)c2c1Br [700,469]
1 µg/mL (≈ 1.87 µM) | ≤ 0.5 µg/mL | CCc1[nH]c2nc(Sc3cnc4nccnc4c3)nc(N3CC(NS(C)(=O)=O)C3)c2c1Br [700,470]

Structure (SMILES) | MIC Spn52 (S. pneumoniae ATCC 51916) | MIC, SA (S. aureus ATCC 13709)
CCOc1ccc(Nc2nc(OCC)c3c(Br)c(CC)[nH]c3n2)cn1.O=C(O)C(F)(F)F [700,417] | 16 µg/mL | 1 µg/mL
CCc1[nH]c2nc(Sc3cnc(C#N)c(F)c3)nc(N3CC(O)C3)c2c1Cl.O=C(O)C(F)(F)F.O=C(O)C(F)(F)F [700,422] | > 64 µg/mL | > 64 µg/mL
CCOc1nc(Nc2ccc3nccnc3c2)nc2[nH]c(CC)c(Br)c12.O=C(O)C(F)(F)F [700,443] | > 64 µg/mL | > 64 µg/mL
CCc1[nH]c2nc(Sc3cnc4nccnc4c3)nc(N3CCN(CCN)CC3)c2c1Cl.O=C(O)C(F)(F)F [700,444] | 8 µg/mL | 4 µg/mL
CCc1[nH]c2nc(Sc3cnc4nccnc4c3)nc(N3CCN(CCO)CC3)c2c1Cl.O=C(O)C(F)(F)F [700,445] | 16 µg/mL | 16 µg/mL
CCc1[nH]c2nc(Sc3cnc4c(N)nc(N)nc4c3)nc(N3CC(O)C3)c2c1Cl.O=C(O)C(F)(F)F.O=C(O)C(F)(F)F [700,448] | 2 µg/mL | 1 µg/mL
CCOc1nc(Nc2cnc3c(c2)nnn3C(C)C)nc2[nH]c(CC)c(Br)c12.O=C(O)C(F)(F)F [700,450] | 4 µg/mL | ≤ 0.5 µg/mL
CCOc1nc(Nc2cnc3c(c2)c(=O)n(C)c(=O)n3C)nc2[nH]c(CC)c(Br)c12.O=C(O)C(F)(F)F [700,452] | > 64 µg/mL | > 64 µg/mL
CCc1[nH]c2nc(Oc3cncnc3)nc(N3CC(O)C3)c2c1Cl.O=C(O)C(F)(F)F [700,458] | 8 µg/mL | 2 µg/mL
CCc1[nH]c2nc(Oc3cccnc3)nc(N3CCN(C(C)=O)CC3)c2c1Cl.O=C(O)C(F)(F)F [700,459] | 32 µg/mL | 16 µg/mL
CCc1[nH]c2nc(Sc3cnc4c(N)nc(N)nc4c3)nc(N3CC(C(=O)O)C3)c2c1Cl.O=C(O)C(F)(F)F.O=C(O)C(F)(F)F [700,464] | > 64 µg/mL | > 64 µg/mL
CCc1[nH]c2nc(Oc3cccnc3)nc(N3CCN(c4cnccn4)CC3)c2c1Cl.O=C(O)C(F)(F)F [700,465] | 32 µg/mL | 8 µg/mL
CCc1[nH]c2nc(Oc3cncnc3)nc(Oc3cncnc3)c2c1Cl.O=C(O)C(F)(F)F [700,466] | 16 µg/mL | 4 µg/mL
